What is called MIC is the least concentration at which growth counts as inhibited. As a reminder, the Cmax is the highest concentration seen after dosing.

Consider seven molecules from ChEMBL document CHEMBL1127356, “(Fluorocyclopropyl)quinolones. 2. Synthesis and Stereochemical structure-activity relationships of chiral 7-(7-amino-5-azaspiro[2.4]heptan-5-yl)-1-(2-fluorocyclopropyl)quinolone antibacterial agents” (J Med Chem, 1994).

In brackets after ≈: the same amount, converted by molar mass.

A short description of data set [1]: Urinary recovery at 20 mg/kg was determined by oral administration to rats in unchanged form of compound. It counts as ADME, organism-based. Further details: dose 20 mg/kg, route oral. The following applies: rat, urine, read-out: Urinary recovery.
Data set [2] deals with Serratia marcescens. In words: Minimum inhibitory concentration in vitro against […]. It counts as functional.
In data set [3] the test system is Staphylococcus aureus. In words: Minimum inhibitory concentration in vitro against Staphylococcus aureus (209P). The class given is functional.
Data set [4] relates to Staphylococcus epidermidis. Put plainly: Minimum inhibitory concentration in vitro against Staphylococcus epidermis (56556). It counts as functional.
Data set [5] relates to Enterococcus faecalis. Put plainly: Minimum inhibitory concentration in vitro against Streptococcus faecalis (ATCC 19433). The class given is functional.
Data set [6] can be described thus: Maximum concentration in plasma was determined by oral administration to rats at 20 mg/kg. The class given is ADME, organism-based. Further details: dose 20 mg/kg, route oral. The following applies: rat.
For data set [7], the system named is Proteus vulgaris. In words: Minimum inhibitory concentration in vitro against Proteus vulgaris (08601). The class given is functional.
Data set [8] has as its system Escherichia coli. Put plainly: Minimum inhibitory concentration in vitro against Escherichia coli (NIHJ). It counts as functional.
The subject of data set [9] is Streptococcus pyogenes. Put plainly: Minimum inhibitory concentration in vitro against Streptococcus pyogenes (G36). The class given is functional.
The subject of data set [10] is Pseudomonas aeruginosa. Put plainly: Minimum inhibitory concentration in vitro against Pseudomonas aeruginosa (32104). The class given is functional.
For data set [11], the system named is Enterobacter cloacae. In words: Minimum inhibitory concentration in vitro against Enterobacter cloacae (03400). It counts as functional.
Data set [12] deals with Klebsiella pneumoniae. In words: Minimum inhibitory concentration in vitro against Klebsiella pneumoniae (type-2). The class given is functional.
The subject of data set [13] is Rattus norvegicus. Put plainly: Urinary recovery by oral administration to rats at 20 mg/kg in conjugate form of compound. The class given is ADME, organism-based, Urine. Further details: dose 20 mg/kg, route oral. The following applies: in vivo.
The subject of data set [14] is Staphylococcus epidermidis. In words: Minimum inhibitory concentration in vitro against […] (56556). The class given is functional.
In data set [15] the test system is Staphylococcus aureus. In words: Minimum inhibitory concentration in vitro against […] (209P). It counts as functional.
Setting [16] is: Serratia marcescens, read-out: MIC.
Where [17] appears, read: Enterococcus faecalis, ATCC 19433, read-out: MIC.
Setting [18] is: Proteus vulgaris, read-out: MIC.
Setting [19] is: Escherichia coli, read-out: MIC.
Setting [20] is: Streptococcus pyogenes, read-out: MIC.
Where [21] appears, read: Pseudomonas aeruginosa, read-out: MIC.
Where [22] appears, read: Enterobacter cloacae, read-out: MIC.
Where [23] appears, read: Klebsiella pneumoniae, read-out: MIC.
[24] abbreviates: Staphylococcus epidermidis, read-out: MIC.
Setting [25] is: Staphylococcus aureus, read-out: MIC.

Take `NC1CCN(c2c(F)cc3c(=O)c(C(=O)O)cn([C@@H]4C[C@@H]4F)c3c2Cl)C1` (single isomer, unassigned): the dose excreted in data set [1] stood at 12%. Also, the MIC in [2] (setting [16]) worked out at 0.025 µg/mL (≈ 0.0651 µM); in [3], 0.013 µg/mL (≈ 0.0339 µM); in data set [4], 0.05 µg/mL (≈ 0.13 µM); in data set [5] (setting [17]) it was 0.2 µg/mL (≈ 0.521 µM); in [7] (setting [18]), 0.006 µg/mL (≈ 0.0156 µM); in data set [8] (setting [19]) it was 0.006 µg/mL (≈ 0.0156 µM). For the same molecule, the MIC worked out at 0.1 µg/mL (≈ 0.261 µM) in data set [9] (setting [20]), 0.05 µg/mL (≈ 0.13 µM) in data set [10] (setting [21]), 0.006 µg/mL (≈ 0.0156 µM) in [11] (setting [22]) and 0.05 µg/mL (≈ 0.13 µM) in data set [12] (setting [23]). Besides, the peak level in [6] (Cmax) was 2000 ng/mL. Also, in data set [13], the Urinary recovery worked out at 4%.

Take `N[C@H]1CCN(c2c(F)cc3c(=O)c(C(=O)O)cn([C@H]4C[C@H]4F)c3c2Cl)C1`: the MIC in [2] (setting [16]) was 0.05 µg/mL (≈ 0.13 µM); in data set [14] (setting [24]) it was 0.05 µg/mL (≈ 0.13 µM); in data set [5] (setting [17]), 0.2 µg/mL (≈ 0.521 µM); in data set [7] (setting [18]), 0.013 µg/mL (≈ 0.0339 µM); in data set [8] (setting [19]), 0.013 µg/mL (≈ 0.0339 µM); in data set [9] (setting [20]), 0.2 µg/mL (≈ 0.521 µM). The minimal inhibitory concentration (MIC) in data set [10] (setting [21]) was 0.1 µg/mL (≈ 0.261 µM); in [11] (setting [22]), 0.025 µg/mL (≈ 0.0651 µM); in data set [12], 0.05 µg/mL (≈ 0.13 µM); in [15] (setting [25]), 0.025 µg/mL (≈ 0.0651 µM).

In the case of `N[C@H]1CN(c2c(F)cc3c(=O)c(C(=O)O)cn(C4C[C@@H]4F)c3c2Cl)CC12CC2` (single isomer, unassigned), the minimal inhibitory concentration (MIC) in data set [2] (setting [16]) came out at 0.1 µg/mL (≈ 0.244 µM); in [14] (setting [24]), 0.1 µg/mL (≈ 0.244 µM); in [5] (setting [17]), 0.78 µg/mL (≈ 1.9 µM); in [7] (setting [18]) it was 0.025 µg/mL (≈ 0.061 µM); in data set [8] (setting [19]) it was 0.025 µg/mL (≈ 0.061 µM); in data set [9] (setting [20]) it was 0.1 µg/mL (≈ 0.244 µM). The MIC was 0.39 µg/mL (≈ 0.952 µM) in [10] (setting [21]), 0.025 µg/mL (≈ 0.061 µM) in data set [11] (setting [22]), 0.05 µg/mL (≈ 0.122 µM) in data set [12] (setting [23]) and 0.1 µg/mL (≈ 0.244 µM) in data set [15] (setting [25]).

Take `N[C@@H]1CN(c2c(F)cc3c(=O)c(C(=O)O)cn(C4CC4F)c3c2Cl)CC12CC2` (stereo in doubt; 38): the MIC in [2] (setting [16]) is 0.2 µg/mL (≈ 0.488 µM); in [14] it was 0.78 µg/mL (≈ 1.9 µM); in data set [5], 3.13 µg/mL (≈ 7.64 µM); in data set [7], 0.1 µg/mL (≈ 0.244 µM); in data set [8] it was 0.05 µg/mL (≈ 0.122 µM); in [9], 3.13 µg/mL (≈ 7.64 µM). In addition, the MIC was 1.56 µg/mL (≈ 3.81 µM) in data set [10], 0.2 µg/mL (≈ 0.488 µM) in data set [11], 0.2 µg/mL (≈ 0.488 µM) in [12] and 0.78 µg/mL (≈ 1.9 µM) in [15].

For `N[C@@H]1CN(c2c(F)cc3c(=O)c(C(=O)O)cn(C4CC4)c3c2Cl)CC12CC2`, the minimal inhibitory concentration (MIC) in data set [2] (setting [16]) came out at 0.1 µg/mL (≈ 0.255 µM); in data set [14] (setting [24]) it was 0.1 µg/mL (≈ 0.255 µM); in data set [5] (setting [17]) it was 0.39 µg/mL (≈ 0.995 µM); in data set [7] (setting [18]), 0.05 µg/mL (≈ 0.128 µM); in [8] (setting [19]), 0.05 µg/mL (≈ 0.128 µM); in data set [9] (setting [20]), 0.78 µg/mL (≈ 1.99 µM). Further, the minimal inhibitory concentration (MIC) in [10] (setting [21]) is 0.39 µg/mL (≈ 0.995 µM); in data set [11] (setting [22]) it was 0.05 µg/mL (≈ 0.128 µM); in [12] (setting [23]), 0.05 µg/mL (≈ 0.128 µM); in data set [15] (setting [25]) it was 0.1 µg/mL (≈ 0.255 µM).

Take `N[C@H]1CN(c2c(F)cc3c(=O)c(C(=O)O)cn(C4C[C@H]4F)c3c2Cl)CC12CC2` (single isomer, unassigned): the minimal inhibitory concentration (MIC) in [2] (setting [16]) was determined as 0.5 µg/mL (≈ 1.22 µM); in data set [14] (setting [24]) it was 0.2 µg/mL (≈ 0.488 µM); in data set [5] (setting [17]), 0.39 µg/mL (≈ 0.952 µM); in [7] (setting [18]), 0.05 µg/mL (≈ 0.122 µM); in data set [8] (setting [19]) it was 0.05 µg/mL (≈ 0.122 µM); in data set [9] (setting [20]), 0.2 µg/mL (≈ 0.488 µM). The minimal inhibitory concentration (MIC) in [10] (setting [21]) was 0.78 µg/mL (≈ 1.9 µM); in data set [11] (setting [22]), 0.05 µg/mL (≈ 0.122 µM); in [12] (setting [23]), 0.1 µg/mL (≈ 0.244 µM); in data set [15] (setting [25]) it was 0.1 µg/mL (≈ 0.244 µM).

Regarding `N[C@@H]1CN(c2c(F)cc3c(=O)c(C(=O)O)cn(C4CC4F)c3c2Cl)CC12CC2` (stereo in doubt; 37), the MIC in data set [2] came to 0.1 µg/mL (≈ 0.244 µM); in [14], 0.1 µg/mL (≈ 0.244 µM); in data set [5], 0.78 µg/mL (≈ 1.9 µM); in data set [7], 0.025 µg/mL (≈ 0.061 µM); in data set [8], 0.006 µg/mL (≈ 0.0146 µM); in data set [9], 0.39 µg/mL (≈ 0.952 µM). Also, the MIC in [10] is 0.39 µg/mL (≈ 0.952 µM); in data set [11], 0.013 µg/mL (≈ 0.0317 µM); in data set [12] it was 0.05 µg/mL (≈ 0.122 µM); in [15], 0.1 µg/mL (≈ 0.244 µM).
